The source made the active and inactive calls. Cut-off read from the data, not from the text of the source: actives have a measured IC50 and inactives only a lower limit.

In the assay the target is Envelope glycoprotein gp160 (Human immunodeficiency virus 1, UniProt Q6QLK5). Nature of the assay: cell-free HIV fusion peptide-binding blockers – biochemical, uHTS, fluorescence dequenching, […] (AID 1986).
Envelope glycoprotein gp160, sequence (Q6QLK5 whole entry, the tested form may be a part): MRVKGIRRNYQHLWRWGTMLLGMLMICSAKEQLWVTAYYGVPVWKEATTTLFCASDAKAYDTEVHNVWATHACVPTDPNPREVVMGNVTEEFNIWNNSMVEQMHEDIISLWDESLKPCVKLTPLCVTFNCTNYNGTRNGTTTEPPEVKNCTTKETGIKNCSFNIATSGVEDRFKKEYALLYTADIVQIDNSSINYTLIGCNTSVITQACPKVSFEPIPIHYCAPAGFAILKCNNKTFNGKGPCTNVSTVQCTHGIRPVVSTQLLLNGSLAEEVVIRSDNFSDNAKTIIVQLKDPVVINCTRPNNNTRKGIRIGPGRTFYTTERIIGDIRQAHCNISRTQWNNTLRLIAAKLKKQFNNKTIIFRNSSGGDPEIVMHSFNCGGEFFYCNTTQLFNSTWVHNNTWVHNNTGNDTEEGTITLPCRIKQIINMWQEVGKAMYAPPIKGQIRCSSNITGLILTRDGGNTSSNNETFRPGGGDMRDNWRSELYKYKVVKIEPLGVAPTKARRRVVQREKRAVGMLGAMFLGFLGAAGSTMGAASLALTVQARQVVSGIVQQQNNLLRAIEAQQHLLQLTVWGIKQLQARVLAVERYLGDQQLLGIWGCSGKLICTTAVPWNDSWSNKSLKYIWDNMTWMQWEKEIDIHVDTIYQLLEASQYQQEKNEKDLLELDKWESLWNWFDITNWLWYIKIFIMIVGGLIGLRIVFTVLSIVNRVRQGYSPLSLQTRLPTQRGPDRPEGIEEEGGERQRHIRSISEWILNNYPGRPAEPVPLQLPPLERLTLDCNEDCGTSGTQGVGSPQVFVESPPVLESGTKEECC
As a reminder, the IC50 is the concentration at which inhibition is half-maximal. In the case of `CC(C(=O)Nc1ccc(O)c(C(=O)O)c1)N1C(=O)/C(=C/c2cccs2)SC1=S` (stereo not drawn), the IC50 was 18.8 µM (active).
In the case of `O=C1NC(=O)/C(=C/c2ccc(-c3cc(C(=O)O)ccc3Cl)o2)S1`, the IC50 is 25.8 µM (active).
Regarding `COCCN1C(=O)/C(=C/c2ccc(OCc3ccc(C(=O)O)cc3)c(OC)c2)S/C1=N\c1ccccc1`, the IC50 was 15.1 µM (active).

Values taken from ChEMBL document CHEMBL1201862, “PubChem BioAssay data set” (2004).
